The source of these data is patent publication US8993616B2, “(aza)indole derivative and use thereof for medical purposes” (Kissei Pharmaceutical Co., Ltd., priority 2007, dated 2015).

Sequence of Xanthine oxidase (from bovine milk, Sigma) (P80457 whole entry): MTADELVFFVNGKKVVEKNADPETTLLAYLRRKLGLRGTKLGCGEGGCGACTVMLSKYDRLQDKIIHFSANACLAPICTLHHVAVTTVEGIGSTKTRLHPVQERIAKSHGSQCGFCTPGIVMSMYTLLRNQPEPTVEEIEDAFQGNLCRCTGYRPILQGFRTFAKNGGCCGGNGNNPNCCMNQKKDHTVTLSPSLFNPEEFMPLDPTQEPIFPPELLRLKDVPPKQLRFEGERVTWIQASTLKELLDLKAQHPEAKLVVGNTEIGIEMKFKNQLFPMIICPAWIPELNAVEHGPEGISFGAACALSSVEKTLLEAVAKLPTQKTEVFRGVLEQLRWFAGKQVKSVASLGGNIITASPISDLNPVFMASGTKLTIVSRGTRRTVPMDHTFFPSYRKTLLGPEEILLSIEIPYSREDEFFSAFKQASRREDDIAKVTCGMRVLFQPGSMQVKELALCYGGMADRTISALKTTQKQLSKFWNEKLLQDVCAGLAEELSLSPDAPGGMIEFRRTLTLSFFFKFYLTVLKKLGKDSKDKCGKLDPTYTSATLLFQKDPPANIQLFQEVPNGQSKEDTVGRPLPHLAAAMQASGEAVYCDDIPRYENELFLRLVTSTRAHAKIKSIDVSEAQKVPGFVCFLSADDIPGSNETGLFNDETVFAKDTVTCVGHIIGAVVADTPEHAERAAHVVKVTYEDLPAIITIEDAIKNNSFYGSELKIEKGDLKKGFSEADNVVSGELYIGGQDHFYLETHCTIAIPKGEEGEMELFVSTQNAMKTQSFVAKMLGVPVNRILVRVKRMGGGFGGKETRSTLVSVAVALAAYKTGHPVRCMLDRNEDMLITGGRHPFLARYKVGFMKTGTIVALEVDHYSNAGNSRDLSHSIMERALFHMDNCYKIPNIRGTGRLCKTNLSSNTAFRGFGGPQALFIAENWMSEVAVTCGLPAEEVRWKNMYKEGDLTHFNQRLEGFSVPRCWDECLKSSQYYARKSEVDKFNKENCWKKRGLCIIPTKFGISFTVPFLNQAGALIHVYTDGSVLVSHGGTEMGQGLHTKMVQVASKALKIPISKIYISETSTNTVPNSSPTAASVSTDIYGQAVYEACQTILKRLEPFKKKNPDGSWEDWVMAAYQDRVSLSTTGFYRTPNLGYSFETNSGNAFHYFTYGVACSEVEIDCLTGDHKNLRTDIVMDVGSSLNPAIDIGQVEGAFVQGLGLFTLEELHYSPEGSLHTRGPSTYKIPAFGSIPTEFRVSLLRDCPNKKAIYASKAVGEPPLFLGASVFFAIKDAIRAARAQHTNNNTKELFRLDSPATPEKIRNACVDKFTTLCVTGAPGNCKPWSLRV
Sequence of human URAT1 (Q96S37 whole entry): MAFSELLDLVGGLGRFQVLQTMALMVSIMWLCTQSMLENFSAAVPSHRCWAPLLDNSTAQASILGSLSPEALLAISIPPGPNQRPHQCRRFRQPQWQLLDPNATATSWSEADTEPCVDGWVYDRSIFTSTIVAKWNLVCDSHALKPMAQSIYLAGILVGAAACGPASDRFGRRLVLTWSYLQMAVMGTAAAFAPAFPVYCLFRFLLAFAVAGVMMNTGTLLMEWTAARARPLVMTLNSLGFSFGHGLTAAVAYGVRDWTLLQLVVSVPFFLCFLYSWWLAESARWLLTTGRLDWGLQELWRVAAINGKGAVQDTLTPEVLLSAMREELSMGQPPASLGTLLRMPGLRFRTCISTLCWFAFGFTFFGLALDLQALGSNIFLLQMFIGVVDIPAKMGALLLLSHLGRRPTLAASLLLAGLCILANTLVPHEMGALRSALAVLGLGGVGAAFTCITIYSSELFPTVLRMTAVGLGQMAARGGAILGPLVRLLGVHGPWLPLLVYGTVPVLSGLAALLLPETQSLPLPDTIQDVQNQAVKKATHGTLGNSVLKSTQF

One assay addresses Xanthine oxidase (from bovine milk, Sigma) (Bos taurus (Bovine), UniProt P80457). The assay can be described thus: Xanthine oxidase inhibitory activity. In kind it is biochemical. To be noted: xanthine substrate, 10 minutes at room temperature, absorbance at 290 nm. How it is done:
(1) Preparation of Test Compounds
Test compounds were dissolved in DMSO (Wako) at 40 mM concentration and then diluted to intended concentrations with phosphate-buffered saline (PBS).
(2) Method for Measurement
Xanthine oxidase (from bovine milk, Sigma) was prepared with phosphate-buffered saline (PBS) at 0.02 units/mL, and then the solution was added to 96 well plates at 50 μL/well. In addition, test compounds diluted with PBS were added at 50 μL/well. Xanthine (Wako) at 200 μM prepared with PBS was added at 100 μL/well, and the reaction was conducted for 10 minutes at room temperature. Absorbance at 290 nm was measured using a microplate reader SpectraMax Plus 384 (Molecular device). The absorbance under a condition without xanthine is 0%, and control without test compounds is 100%. Fifty % inhibitory concentration of a test compound (IC50) was calculated (Table 60). Ex. No in the table indicates Example number.
The term IC50 denotes the concentration at which inhibition is half-maximal. The low end stands for inhibition by little substance, the high end for a need for much substance. In turn, `N#Cc1cn(-c2ccc(C(=O)O)c(O)c2)c2ccccc12` [Example 188] showed an IC50 of 5 nM. `N#Cc1cn(-c2ccc(C(=O)O)c(O)c2)c2cc(F)c(F)cc12` [Example 3, 4-(3-Cyano-5,6-difluoroindol-1-yl)-2-hydroxybenzoic acid] returned an IC50 of 6.5 nM. As to `N#Cc1cn(-c2ccc(C(=O)O)c(O)c2)c2cc(F)ccc12` [Example 192], the IC50 worked out at 4.3 nM. Still for that read-out and setting: the value for `N#Cc1cn(-c2ccc(C(=O)O)c(O)c2)c2cc(Cl)c(F)cc12` [Example 193] was 4.6 nM; that for `CCOCCOc1ccc2c(c1)c(C#N)cn2-c1ccc(C(=O)O)cc1` [Example 174] was 24.4 nM. The same measure, in the same setting: the value for `N#Cc1cn(-c2ccc(C(=O)O)c(O)c2)c2ccc(O)cc12` [Example 201] was 5.5 nM; that for `N#Cc1cn(-c2ccc(C(=O)O)c(O)c2)c2ccc(F)cc12` [Example 191] was 3.9 nM; that for `N#Cc1cn(-c2ccc(C(=O)O)cc2)c2ccc(OCc3ccccc3)cc12` [Example 151] was 22.4 nM.

Compound `N#Cc1cn(-c2ccc(C(=O)O)cc2)c2ccc(-c3ccncc3)cc12` [Example 159] yielded an IC50 of 14.4 nM.

With `N#Cc1cn(-c2ccc(C(=O)O)cc2)c2cc(CO)ccc12` [Example 184], the IC50 is 138 nM. Against the preceding compound, the IC50 is about 9.6-fold higher. As to `N#Cc1cn(-c2ccc(C(=O)O)c(O)c2)c2cc(C(F)(F)F)ccc12` [Example 195], half-maximal inhibition (IC50) required 14.5 nM.

In turn, `N#Cc1cn(-c2ccc(C(=O)O)cc2)c2ccc(-c3cccs3)cc12` [Example 158] came in with an IC50 of 9.5 nM.

As to `CS(=O)(=O)NCCOc1ccc2c(C#N)cn(-c3ccc(C(=O)O)c(O)c3)c2c1` [Example 238], the IC50 was 8.3 nM. Consider `CCCCOc1ccc2c(C#N)cn(-c3ccc(C(=O)O)c(O)c3)c2c1` [Example 221], for which the half-inhibitory concentration (IC50) was 71.5 nM. Same read-out and setting: to `Cc1cc2c(cc1OCc1ccccc1)c(C#N)cn2-c1ccc(C(=O)O)cc1` [Example 149] belongs 38 nM.

The compound `N#Cc1cn(-c2ccc(C(=O)O)c(O)c2)c2cc(OCc3ccccc3Cl)ccc12` [Example 230] displayed an IC50 of 67.1 nM. In the case of `N#Cc1cn(-c2ccc(C(=O)O)cc2)c2ccc(-c3ccccc3)cc12` [Example 150], the midpoint of inhibition, the IC50, lay at 20.6 nM. The compound `COc1c(C)cc2c(c(C#N)cn2-c2ccc(C(=O)O)cc2)c1C` [Example 288] came in with an IC50 of 10 nM. Compared with the last compound, the IC50 is about 2.1-fold lower. The compound `N#Cc1cn(-c2ccc(C(=O)O)cc2)c2ccc(OCC(=O)O)cc12` [Example 170] gave an IC50 of 20 nM. On the same count and under the same terms, the value for `N#Cc1cn(-c2ccc(C(=O)O)c(O)c2)c2cc3c(cc12)OCO3` [Example 194] was 8.3 nM; that for `N#Cc1cn(-c2ccc(C(=O)O)c(O)c2)c2cc(OCCCO)ccc12` [Example 228] was 7.5 nM. In the case of `COc1cc2c(C#N)cn(-c3ccc(C(=O)O)cc3)c2cc1Cl` [Example 293], 14 nM corresponded to half-maximal inhibition (IC50). Take `COCOc1cc(-n2cc(C#N)c3ccccc32)ccc1C(=O)O` [Example 308]: 45 nM corresponded to half-maximal inhibition (IC50). As to `CC(C)Oc1ccc2c(C#N)cn(-c3ccc(C(=O)O)c(O)c3)c2c1` [Example 224], the IC50 was 9.7 nM. This IC50 lies about 4.6-fold lower than the previous one.

Compound `N#Cc1cn(-c2ccc(C(=O)O)c(O)c2)c2c(F)cccc12` [Example 318] returned an IC50 of 12 nM. This IC50 and that of the compound before are within 1.5-fold of each other. On to `CCOCCOc1ccc2c(C#N)cn(-c3ccc(C(=O)O)c(O)c3)c2c1` [Example 219], for which the IC50 came to 8.3 nM. `Cc1nc(-n2cc(C#N)c3ccccc32)sc1C(=O)O` [Example 47, 2-(3-Cyanoindol-1-yl)-4-methylthiazole-5-carboxylic acid]: the half-maximal inhibitory concentration (IC50) was determined as 58.6 nM. `N#Cc1cn(-c2ccc(C(=O)O)c(O)c2)c2cccc(F)c12` [Example 225] displayed an IC50 of 4.6 nM.

`N#Cc1cn(-c2ccc(C(=O)O)c(O)c2)c2ccc(-c3ccccc3)cc12` [Example 198] had an IC50 of 54.6 nM. Turning to `N#Cc1cn(-c2ccc(C(=O)O)c(O)c2)c2cc(OCC(=O)O)ccc12` [Example 216], the IC50 turned out to be 7.4 nM. Take `N#Cc1cn(-c2ccc(C(=O)O)c(O)c2)c2cc(OCc3ccccc3)ccc12` [Example 5, 4-(6-Benzyloxy-3-cyanoindol-1-yl)-2-hydroxybenzoic acid]: the IC50 worked out at 33.6 nM. `N#Cc1cn(-c2ccc(C(=O)O)c(O)c2)c2cc(Cl)ccc12` [Example 190] gave an IC50 of 5.4 nM. Same read-out and setting: the value for `N#Cc1cn(-c2ccc(C(=O)O)cc2)c2ccc(O)cc12` [Example 152] was 15.8 nM. The same measure, in the same setting: the value for `N#Cc1cn(-c2ccc(C(=O)O)cc2)c2ccc(/C=C/C(=O)O)cc12` [Example 17, 4-[5-((E)-2-Carboxyvinyl)-3-cyanoindol-1-yl]benzoic acid] was 12.1 nM; that for `N#Cc1cn(-c2ccc(C(=O)O)cc2)c2ccc(OCCOc3ccccc3)cc12` [Example 154] was 19 nM; that for `N#Cc1cn(-c2ccc(C(=O)O)cc2)c2cc(-c3ccccc3)ccc12` [Example 155] was 112 nM. Compound `COCCOc1ccc2c(c1)c(C#N)cn2-c1ccc(C(=O)O)c(O)c1` [Example 211] displayed an IC50 of 6.2 nM. As for `N#Cc1cn(-c2ccc(C(=O)O)cc2)c2cc(OCCO)ccc12` [Example 186], the IC50 came out at 49.7 nM. For `Cc1ccc2c(c1)c(C#N)cn2-c1ccc(C(=O)O)c(O)c1` [Example 189], it took 13.9 nM to reach half-maximal inhibition (IC50). Against the preceding compound, the IC50 is about 3.6-fold lower. Turning to `CN(C)C(=O)c1ccc2c(c1)c(C#N)cn2-c1ccc(C(=O)O)cc1` [Example 34, 4-(3-Cyano-5-dimethylaminocarbonylindol-1-yl)benzoic acid], the IC50 was 48.3 nM. This IC50 is about 3.5-fold higher than that of the compound before. Take `CC(=O)c1ccc(-c2ccc3c(c2)c(C#N)cn3-c2ccc(C(=O)O)cc2)cc1` [Example 166]: the IC50 came out at 7.2 nM.

`N#Cc1ccc2c(C#N)cn(-c3ccc(C(=O)O)c(O)c3)c2c1` [Example 207] yielded an IC50 of 7.3 nM. The same measure, in the same setting: to `CC(C)Oc1ccc2c(c1)c(C#N)cn2-c1ccc(C(=O)O)c(O)c1` [Example 209] belongs 11 nM.

The target in a further assay is human URAT1 (Homo sapiens (Human), UniProt Q96S37). The assay can be described thus: Inhibitory activity of uric acid transport with human URAT1 expressing cells. In kind it is cell-based. To be noted: COS-7; 10 μM test compound; 14C-labeled uric acid uptake in COS7 cells transiently expressing human URAT1, 5 minutes. How it is done:
(1) Preparation of Transiently Human URAT1 Expressing Cells
Full length human URAT1 cDNA (NCBI Accession No. NM_144585) was subcloned into expression vector, pcDNA3.1 (Invitrogen). Human URAT1 expression vector was transfected into COS7 cells (RIKEN CELL BANK RCB0539) using Lipofectamine 2000. COS7 cells were cultured in collagen-coated 24 well plates (Asahi Techno Glass) at 2×10^5/well in D-MEM culture medium (Invitrogen) containing 10% fetal bovine serum (Sanko Junyaku) for 2 hours at 37° C. under the condition of 5% CO2. For 1 well, 2 μL of Lipofectamine 2000 was diluted in 50 μL of OPTI-MEM (Invitrogen) and allowed to stand at room temperature for 7 minutes (hereinafter referred to as Lipo2000-OPTI). For 1 well, 0.8 μg of human URAT1 expression vector was diluted in 50 μL of OPTI-MEM (Invitrogen) and combined gently with Lipo2000-OPTI. After standing at room temperature for 25 minutes, the mixture was added to COS7 cells at 100 μL/well. […]
All tests were performed on hot-plate at 37° C. […] After mixing, the radioactivity was counted in a liquid scintillation counter (PerkinElmer). The radioactivity in COST cells not transfected with URAT1 expression vector was also counted under the same condition as control. […]
• A: Radioactivity in control • B: Radioactivity in the case of addition of test compounds • C: Radioactivity in COST cells not transfected with URAT1 expression vector
One may read the inhibition as the relative decrease from the control value, in per cent. Read a high inhibition as a strong effect. `N#Cc1cn(-c2ccc(C(=O)O)c(O)c2)c2cc(Cl)c(F)cc12` [Example 193] had an inhibition at 10 µM of 47%.

In turn, `N#Cc1cn(-c2ccc(C(=O)O)c(O)c2)c2cc3c(cc12)OCO3` [Example 194] returned an inhibition at 10 µM of 64%.

System in the next assay: not listed separately
The assay can be described thus: Serum hypouricemic effect. In kind it is in vivo. To be noted: 3 mg/kg orally, overnight fasted male CD (SD) IGS rats, 2 hours after administration. As for the experimental part: (1) Method for Measurement
Test compounds at 3 mg/kg suspended in 0.5% methylcellulose solution were administered orally to overnight fasted male CD (SD) IGS rats (5-week-old, Charls River Japan). At 2 hours after administration, blood was collected under ether anesthesia from abdominal aorta, and serum was separated according to general method. Serum uric acid values were determined by use of uric acid measurement kit (Uric acid C-Test Wako: Wako), and percent decrease in uric acid was calculated according to the formula described below.
Percent decrease in uric acid (%)=(Serum uric acid values in control animals—Serum uric acid values in animals administered test compounds)×100/Serum uric acid values in control animals
Regarding `N#Cc1cn(-c2ccc(C(=O)O)c(O)c2)c2ccccc12` [Example 188], the “Percent decrease in uric acid (hypouricemic effect)” value (“Percent decrease in uric acid” for short) is “over 60%”. Take `N#Cc1cn(-c2ccc(C(=O)O)c(O)c2)c2cc(F)c(F)cc12` [Example 3, 4-(3-Cyano-5,6-difluoroindol-1-yl)-2-hydroxybenzoic acid]: the “Percent decrease in uric acid” value is “over 60%”. `N#Cc1cn(-c2ccc(C(=O)O)c(O)c2)c2cc(F)ccc12` [Example 192]: the “Percent decrease in uric acid” value is “over 60%”. As to `N#Cc1cn(-c2ccc(C(=O)O)c(O)c2)c2ccc(F)cc12` [Example 191], the “Percent decrease in uric acid” value was “over 60%”.
